From patent publication US12077503B2, “Substituted cyclic amides and their use as herbicides” (FMC CORPORATION, priority 2015, dated 2024)

Columns and labels:
Format in all cases: in vivo
[1] = test system: barnyardgrass (Echinochloa crus-galli); test: Test A preemergence; conditions: Echinochloa crus-galli, pre-emergence, 240 h; for pest or weed control at 125 g/ha: 125 g ai/ha, Preemergence, visual injury rating after approximately 10 d, read-out: Barnyardgrass plant response rating (0 to 100 scale, 0 is no effect, 100 is complete control); for pest or weed control at 500 g/ha: 500 g ai/ha, preemergence, visual injury rating about 10 d after treatment, 0 to 100 scale (0 no effect, 100 complete control), read-out: Barnyardgrass plant response rating
In short: (§1)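 Greenhouse, ~10 d after spray; visual injury vs untreated controls, 0 = no effect, 100 = complete control. Preemergence: directed soil spray over planted seeds. Postemergence: plants 2–10 cm, 1–2 leaf stage. Loam/sand blend. Compound in non-phytotoxic solvent with surfactant.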

[2] = test system: Kochia (Kochia scoparia); test: Test A preemergence; conditions: Bassia scoparia, pre-emergence, 240 h; for pest or weed control at 125 g/ha: 125 g ai/ha, Preemergence, visual injury rating after approximately 10 d, read-out: Kochia plant response rating (0 to 100 scale, 0 is no effect, 100 is complete control); for pest or weed control at 500 g/ha: 500 g ai/ha, preemergence, visual injury rating about 10 d after treatment, 0 to 100 scale (0 no effect, 100 complete control), read-out: Kochia plant response rating
In short: as §1

[3] = test system: ryegrass, Italian (Italian ryegrass, Lolium multiflorum); test: Test A preemergence; conditions: Lolium multiflorum, pre-emergence, 240 h; for pest or weed control at 125 g/ha: 125 g ai/ha, Preemergence, visual injury rating after approximately 10 d, read-out: Ryegrass, Italian plant response rating (0 to 100 scale, 0 is no effect, 100 is complete control); for pest or weed control at 500 g/ha: 500 g ai/ha, preemergence, visual injury rating about 10 d after treatment, 0 to 100 scale (0 no effect, 100 complete control), read-out: Ryegrass, Italian plant response rating
In short: as §1

[4] = test system: giant foxtail (Setaria faberii); test: Test A preemergence; conditions: Setaria faberi, pre-emergence, 240 h; for pest or weed control at 125 g/ha: 125 g ai/ha, Preemergence, visual injury rating after approximately 10 d, read-out: Foxtail, Giant plant response rating (0 to 100 scale, 0 is no effect, 100 is complete control); for pest or weed control at 500 g/ha: 500 g ai/ha, preemergence, visual injury rating about 10 d after treatment, 0 to 100 scale (0 no effect, 100 complete control), read-out: Foxtail, Giant plant response rating
In short: as §1

[5] = test system: pigweed (Amaranthus retroflexus); test: Test A preemergence; conditions: Amaranthus retroflexus, pre-emergence, 240 h; for pest or weed control at 125 g/ha: 125 g ai/ha, Preemergence, visual injury rating after approximately 10 d, read-out: Pigweed plant response rating (0 to 100 scale, 0 is no effect, 100 is complete control); for pest or weed control at 500 g/ha: 500 g ai/ha, preemergence, visual injury rating about 10 d after treatment, 0 to 100 scale (0 no effect, 100 complete control), read-out: Pigweed plant response rating
[6] = test system: ragweed (common ragweed, Ambrosia elatior); test: Test A preemergence; conditions: Ambrosia artemisiifolia, pre-emergence, 240 h; for pest or weed control at 125 g/ha: 125 g ai/ha, Preemergence, visual injury rating after approximately 10 d, read-out: Ragweed plant response rating (0 to 100 scale, 0 is no effect, 100 is complete control); for pest or weed control at 500 g/ha: 500 g ai/ha, preemergence, visual injury rating about 10 d after treatment, 0 to 100 scale (0 no effect, 100 complete control), read-out: Ragweed plant response rating
In short: as §1

[7] = test system: barnyardgrass (Echinochloa crus-galli); test: Test B flooded paddy test; conditions: Echinochloa crus-galli, Flood, 250 g ai/ha; scale of 0 to 100 where 0 is no effect and 100 is complete control; read-out: Barnyardgrass plant response rating
In short: (§2)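 Flooding to 3 cm over soil accompanied treatment, which consisted of adding compound to the standing water around 2-leaf plants; depth was then maintained. Visual assessment versus controls followed at 13 to 15 d (scale 0–100, 0 meaning no effect).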

[8] = test system: sedge, umbrella (small-flower umbrella sedge, Cyperus difformis); test: Test B flooded paddy test; conditions: Cyperus difformis, Flood, 250 g ai/ha; scale of 0 to 100 where 0 is no effect and 100 is complete control; read-out: Sedge, Umbrella plant response rating
In short: as §2

[9] = test system: ducksalad (Heteranthera limosa); test: Test B flooded paddy test; conditions: Heteranthera limosa, Flood, 250 g ai/ha; scale of 0 to 100 where 0 is no effect and 100 is complete control; read-out: Ducksalad plant response rating
In short: as §2

[10] = test system: rice (Oryra sativa); test: Test B flooded paddy test; conditions: Oryza sativa, Flood, 250 g ai/ha; scale of 0 to 100 where 0 is no effect and 100 is complete control; read-out: Rice plant response rating
In short: as §2

[11] = test system: Kochia (Kochia scoparia); test: Test A postemergence; conditions: Bassia scoparia, post-emergence, 240 h, 125 g ai/ha, Postemergence; visual injury after approximately 10 d; 0 to 100 scale where 0 is no effect and 100 is complete control; read-out: Plant response rating, Kochia
In short: as §1

[12] = test system: ryegrass, Italian (Italian ryegrass, Lolium multiflorum); test: Test A postemergence; conditions: Lolium multiflorum, post-emergence, 240 h, 125 g ai/ha, Postemergence; visual injury after approximately 10 d; 0 to 100 scale where 0 is no effect and 100 is complete control; read-out: Plant response rating, Ryegrass, Italian
In short: as §1

[13] = test system: wheat (Triticum aestivum); test: Test A postemergence; conditions: Triticum aestivum, post-emergence, 240 h, 125 g ai/ha, Postemergence; visual injury after approximately 10 d; 0 to 100 scale where 0 is no effect and 100 is complete control; read-out: Plant response rating, Wheat
In short: as §1

[14] = test system: corn (Zea mays); test: Test A postemergence; conditions: Zea mays, post-emergence, 240 h, 125 g ai/ha, Postemergence; visual injury after approximately 10 d; 0 to 100 scale where 0 is no effect and 100 is complete control
In short: as §1

[15] = test system: giant foxtail (Setaria faberii); test: Test A postemergence; conditions: Setaria faberi, post-emergence, 240 h, 125 g ai/ha, Postemergence; visual injury after approximately 10 d; 0 to 100 scale where 0 is no effect and 100 is complete control; read-out: Plant response rating, Foxtail, Giant
In short: as §1

[16] = test system: pigweed (Amaranthus retroflexus); test: Test A postemergence; conditions: Amaranthus retroflexus, post-emergence, 240 h, 125 g ai/ha, Postemergence; visual injury after approximately 10 d; 0 to 100 scale where 0 is no effect and 100 is complete control; read-out: Plant response rating, Pigweed
In short: as §1

[17] = test system: blackgrass (Alopecurus myosuroides); test: Test A postemergence; conditions: Alopecurus myosuroides, post-emergence, 240 h, 125 g ai/ha, Postemergence; visual injury after approximately 10 d; 0 to 100 scale where 0 is no effect and 100 is complete control; read-out: Plant response rating, Blackgrass
In short: as §1

[18] = test system: Galium (catchweed bedstraw, Galium aparine); test: Test A postemergence; conditions: Galium, post-emergence, 240 h, 125 g ai/ha, Postemergence; visual injury after approximately 10 d; 0 to 100 scale where 0 is no effect and 100 is complete control; read-out: Plant response rating, Galium
In short: as §1

[19] = test system: ragweed (common ragweed, Ambrosia elatior); test: Test A postemergence; conditions: Ambrosia artemisiifolia, post-emergence, 240 h, 125 g ai/ha, Postemergence; visual injury after approximately 10 d; 0 to 100 scale where 0 is no effect and 100 is complete control; read-out: Plant response rating, Ragweed
In short: as §1

Row | Structure (SMILES) | pest or weed control at 125 g/ha [1] [%] | pest or weed control at 500 g/ha [1] [%] | pest or weed control at 125 g/ha [2] [%] | pest or weed control at 500 g/ha [2] [%] | pest or weed control at 125 g/ha [3] [%] | pest or weed control at 500 g/ha [3] [%] | pest or weed control at 125 g/ha [4] [%] | pest or weed control at 500 g/ha [4] [%] | pest or weed control at 125 g/ha [5] [%] | pest or weed control at 500 g/ha [5] [%] | pest or weed control at 500 g/ha [6] [%] | pest or weed control at 250 g/ha [7] [%] | pest or weed control at 250 g/ha [8] [%] | pest or weed control at 250 g/ha [9] [%] | pest or weed control at 250 g/ha [10] [%] | pest or weed control at 125 g/ha [11] [%] | pest or weed control at 125 g/ha [12] [%] | plant injury at 125 g/ha [13] [%] | Corn plant response rating (crop injury, 0 = no effect, 100 = complete kill) at 125 g/ha [14] [%] | pest or weed control at 125 g/ha [15] [%] | also measured
1 | COc1cc(OC)cc([C@H]2CN(C)C(=O)[C@@H]2C(=O)Nc2ccccc2SC)c1 [Compound 981] | 90 | 100 | 0 | 90 | 0 | 60 | 90 | 100 | 0 | 0 | 50 | 0 | 0 | 0 | 0 | 0 | 0 | 0 | 0 | 70 | pest or weed control at 125 g/ha [6]: 0%; pest or weed control at 125 g/ha [16]: 0%; pest or weed control at 125 g/ha [17]: 0%; pest or weed control at 125 g/ha [18]: 0%; pest or weed control at 125 g/ha [19]: 0%
2 | CSc1ccccc1NC(=O)[C@H]1C(=O)N(C)C[C@@H]1c1cc(F)cc(Cl)c1 [Compound 975] | 90 | 100 | 50 | 90 | 30 | 40 | 90 | 90 | 20 | 90 | 90 | 40 | 0 | 90 | 0 | 40 | 20 | 20 | 20 | 90 | pest or weed control at 125 g/ha [16]: 30%; pest or weed control at 125 g/ha [17]: 50%; pest or weed control at 125 g/ha [18]: 50%; pest or weed control at 125 g/ha [19]: 0%
3 | Cc1c(F)cccc1NC(=O)[C@H]1C(=O)N(C)C[C@@H]1c1cc(F)cc(Cl)c1 [Compound 978] | 90 | 90 | 40 | 90 | 60 | 90 | 90 | 90 | 0 | 50 | 90 | 65 | 0 | 100 | 30 | 0 | 50 | 70 | 60 | 90 | pest or weed control at 125 g/ha [6]: 90%; pest or weed control at 125 g/ha [16]: 0%; pest or weed control at 125 g/ha [17]: 60%; pest or weed control at 125 g/ha [18]: 50%; pest or weed control at 125 g/ha [19]: 0%
